Laboratory results as given in the NIST ThermoML archive (doi:10.1021/je049609w).
± gives the expanded uncertainty stated by the source.

How the values were obtained:
[1] = 101 kPa, Liquid
[2] = refractive index (Na D-line) (dimensionless); details: 101.33 kPa, Liquid
[3] = xn = mol fraction of the nth substance listed; details: 101 kPa, Liquid
[4] = refractive index (Na D-line) (dimensionless); xn = mol fraction of the nth substance listed; details: 101 kPa, Liquid

CCOC(C)=O [ethyl acetate]
Details | mass density, 298.15 K [kg/m3] | mass density, 303.15 K [kg/m3] | mass density, 308.15 K [kg/m3] | refractive index, 298.15 K | refractive index, 303.15 K | refractive index, 308.15 K | speed of sound, 298.15 K [m/s] | viscosity, 298.15 K [mPa·s] | viscosity, 303.15 K [mPa·s] | viscosity, 308.15 K [mPa·s]
[1] | 894.2 ± 1.2 | 887.9 ± 1.2 | 881.6 ± 1.3 | – | – | – | 1155 ± 7 | 0.438 ± 0.016 | 0.414 ± 0.016 | 0.392 ± 0.015
[2] | – | – | – | 1.3713 ± 0.0024 | 1.3673 ± 0.0024 | 1.3631 ± 0.0024 | – | – | – | –

OCCCl [1-chloro-2-hydroxyethane] + C1COCCO1
Details | mass density, 298.15 K [kg/m3] | mass density, 303.15 K [kg/m3] | mass density, 308.15 K [kg/m3] | refractive index, 298.15 K | refractive index, 303.15 K | refractive index, 308.15 K | speed of sound, 298.15 K [m/s] | viscosity, 298.15 K [mPa·s] | viscosity, 303.15 K [mPa·s] | viscosity, 308.15 K [mPa·s]
[3], x2 = 0 | 1200.9 ± 1.7 | 1192.5 ± 1.7 | 1187.1 ± 1.8 | – | – | – | 1358 ± 8 | 3.104 ± 0.091 | 2.669 ± 0.079 | 2.347 ± 0.07
[3], x2 = 0.1024 | 1177.7 ± 1.7 | 1171.1 ± 1.7 | 1165.1 ± 1.7 | – | – | – | 1357 ± 8 | 2.755 ± 0.081 | 2.457 ± 0.073 | 2.16 ± 0.065
[3], x2 = 0.2001 | 1157 ± 1.6 | 1151.1 ± 1.7 | 1145.2 ± 1.7 | – | – | – | 1356 ± 8 | 2.431 ± 0.072 | 2.17 ± 0.065 | 1.909 ± 0.058
[3], x2 = 0.3035 | 1136.7 ± 1.6 | 1131.1 ± 1.6 | 1125.5 ± 1.7 | – | – | – | 1354 ± 8 | 2.088 ± 0.063 | 1.877 ± 0.057 | 1.666 ± 0.051
[3], x2 = 0.4041 | 1118.2 ± 1.6 | 1112.7 ± 1.6 | 1107.2 ± 1.7 | – | – | – | 1353 ± 8 | 1.858 ± 0.056 | 1.682 ± 0.051 | 1.505 ± 0.046
[3], x2 = 0.5047 | 1100.8 ± 1.5 | 1095.4 ± 1.6 | 1090 ± 1.6 | – | – | – | 1352 ± 7 | 1.649 ± 0.05 | 1.496 ± 0.046 | 1.344 ± 0.042
[3], x2 = 0.6031 | 1084.8 ± 1.5 | 1079.4 ± 1.5 | 1073.9 ± 1.6 | – | – | – | 1350 ± 7 | 1.505 ± 0.046 | 1.376 ± 0.043 | 1.248 ± 0.039
[3], x2 = 0.7015 | 1069.5 ± 1.5 | 1064.1 ± 1.5 | 1058.7 ± 1.6 | – | – | – | 1349 ± 7 | 1.377 ± 0.043 | 1.265 ± 0.04 | 1.152 ± 0.037
[3], x2 = 0.8009 | 1054.9 ± 1.5 | 1049.5 ± 1.5 | 1044.1 ± 1.5 | – | – | – | 1347 ± 7 | 1.304 ± 0.041 | 1.199 ± 0.038 | 1.095 ± 0.035
[3], x2 = 0.9003 | 1041.6 ± 1.4 | 1030.9 ± 7 | 1030.2 ± 1.5 | – | – | – | 1346 ± 7 | 1.233 ± 0.039 | 1.136 ± 0.036 | 1.038 ± 0.033
[4], x2 = 0 | – | – | – | 1.4411 ± 0.0024 | 1.438 ± 0.0024 | 1.4326 ± 0.0024 | – | – | – | –
[4], x2 = 0.1024 | – | – | – | 1.4389 ± 0.0024 | 1.4356 ± 0.0024 | 1.4324 ± 0.0024 | – | – | – | –
[4], x2 = 0.2001 | – | – | – | 1.4363 ± 0.0024 | 1.4337 ± 0.0024 | 1.431 ± 0.0024 | – | – | – | –
[4], x2 = 0.3035 | – | – | – | 1.4337 ± 0.0024 | 1.4314 ± 0.0024 | 1.4292 ± 0.0024 | – | – | – | –
[4], x2 = 0.4041 | – | – | – | 1.4314 ± 0.0024 | 1.4291 ± 0.0024 | 1.4268 ± 0.0024 | – | – | – | –
[4], x2 = 0.5047 | – | – | – | 1.429 ± 0.0024 | 1.4269 ± 0.0024 | 1.4247 ± 0.0024 | – | – | – | –
[4], x2 = 0.6031 | – | – | – | 1.4273 ± 0.0024 | 1.4249 ± 0.0024 | 1.4225 ± 0.0024 | – | – | – | –
[4], x2 = 0.7015 | – | – | – | 1.4256 ± 0.0024 | 1.4231 ± 0.0024 | 1.4205 ± 0.0024 | – | – | – | –
[4], x2 = 0.8009 | – | – | – | 1.4235 ± 0.0024 | 1.4211 ± 0.0024 | 1.4187 ± 0.0024 | – | – | – | –
[4], x2 = 0.9003 | – | – | – | 1.4214 ± 0.0024 | 1.4191 ± 0.0024 | 1.4168 ± 0.0024 | – | – | – | –
